Assay results published in ChEMBL document CHEMBL1201862, “PubChem BioAssay data set” (2004).
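Briefly, cells in 96-well plates were exposed to five compound concentrations for 48 h, and endpoints were estimated by linear interpolation. GI50 marks 50% less growth.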 Active and inactive are the calls of the source. Rule as the data show it: active = GI50 up to about 1.1 µM and inactive = higher.

How the values were obtained:
Assay in all cases: NCI tumour cell line growth inhibition, 48 h
786-0 = test system: 786-0
EKVX = test system: EKVX
HT-29 = test system: HT-29
IGROV-1 = test system: IGROV-1
M14 = test system: M14
MOLT-4 = test system: MOLT-4
NCI-H522 = test system: NCI-H522
OVCAR-4 = test system: OVCAR-4
OVCAR-8 = test system: OVCAR-8
SF-295 = test system: SF-295
SF-539 = test system: SF-539
SK-MEL-2 = test system: SK-MEL-2
SK-MEL-5 = test system: SK-MEL-5
SNB-19 = test system: SNB-19
TK-10 = test system: TK-10
UACC-257 = test system: UACC-257
RXF 393 = test system: RXF 393
SR = test system: SR

Compound | GI50 (786-0) | GI50 (EKVX) | GI50 (HT-29) | GI50 (IGROV-1) | GI50 (M14) | GI50 (MOLT-4) | GI50 (NCI-H522) | GI50 (OVCAR-4) | GI50 (OVCAR-8) | GI50 (SF-295) | GI50 (SF-539) | GI50 (SK-MEL-2) | GI50 (SK-MEL-5) | GI50 (SNB-19) | GI50 (TK-10) | GI50 (UACC-257) | GI50 (RXF 393) | GI50 (SR)
CCN1CCC(O)(c2ccc(Cl)c(Cl)c2)C(C(=O)c2ccc(Cl)c(Cl)c2)C1 (centres undefined) | 15.4 µM (inactive) | 18.5 µM (inactive) | 18.2 µM (inactive) | 20.6 µM (inactive) | 16.7 µM (inactive) | 15.1 µM (inactive) | 3.71 µM (inactive) | 18.3 µM (inactive) | 19.8 µM (inactive) | 17.6 µM (inactive) | 17.7 µM (inactive) | 17.3 µM (inactive) | 16.9 µM (inactive) | 19.7 µM (inactive) | 16.5 µM (inactive) | 18.2 µM (inactive) |  | 
CCc1ccc(Nc2ccc([N+](=O)[O-])cc2[N+](=O)[O-])cc1 | > 100 µM (inactive) | 75.9 µM (inactive) | 47.3 µM (inactive) | 97.3 µM (inactive) | > 100 µM (inactive) | 19.1 µM (inactive) |  | 34.5 µM (inactive) | 97.7 µM (inactive) | 89.7 µM (inactive) | > 100 µM (inactive) | > 100 µM (inactive) | 38.6 µM (inactive) |  | 73.8 µM (inactive) | 67.8 µM (inactive) | 71.4 µM (inactive) | 
COC(=O)c1cc2cc(OC)c(OC)cc2cc(C(=O)OC)c1=O | > 100 µM (inactive) | > 100 µM (inactive) | > 100 µM (inactive) | > 100 µM (inactive) | > 100 µM (inactive) | > 100 µM (inactive) | > 100 µM (inactive) | > 100 µM (inactive) | > 100 µM (inactive) | > 100 µM (inactive) | > 100 µM (inactive) | > 100 µM (inactive) | > 100 µM (inactive) | > 100 µM (inactive) | > 100 µM (inactive) | > 100 µM (inactive) | > 100 µM (inactive) | 
c1ccc(CN2CCCCC(Sc3ccccc3)CC2)cc1 (centres undefined) | 16.8 µM (inactive) | 35.2 µM (inactive) | 17.7 µM (inactive) | 91.6 µM (inactive) | 16.1 µM (inactive) | 20.8 µM (inactive) |  | 46.7 µM (inactive) | 27.8 µM (inactive) | 40.5 µM (inactive) | 29.8 µM (inactive) | 32.9 µM (inactive) | 18.7 µM (inactive) | 34 µM (inactive) | 58.7 µM (inactive) | > 100 µM (inactive) |  | 17.8 µM (inactive)
COC1C(OC(=O)c2ccc(C)[nH]2)C(O)C(Oc2ccc3c(O)c(NC(=O)c4c[nH]c(C(=O)Nc5c(O)c6ccc(OC7OC(C)(C)C(OC)C(OC(=O)c8ccc(C)[nH]8)C7O)c(C)c6oc5=O)c4C)c(=O)oc3c2C)OC1(C)C (centres undefined) | 2.1 µM (inactive) | 3.82 µM (inactive) | 3.9 µM (inactive) | 1.3 µM (inactive) |  | 0.857 µM (active) |  | 2.05 µM (inactive) | 2.81 µM (inactive) | 4.01 µM (inactive) |  | 2.28 µM (inactive) | 2.61 µM (inactive) | 0.693 µM (active) | 4.86 µM (inactive) | 3.95 µM (inactive) | 0.794 µM (active) | 
N#CC(C(=O)/C(=N/N)C(C#N)c1ccccc1)c1ccccc1 (centres undefined) | > 100 µM (inactive) | > 100 µM (inactive) | > 100 µM (inactive) | > 100 µM (inactive) | > 100 µM (inactive) | > 100 µM (inactive) | > 100 µM (inactive) | > 100 µM (inactive) | > 100 µM (inactive) | > 100 µM (inactive) | > 100 µM (inactive) | > 100 µM (inactive) | > 100 µM (inactive) | > 100 µM (inactive) | > 100 µM (inactive) | > 100 µM (inactive) | > 100 µM (inactive) | 
c1cncc(C2c3[nH]c4ccccc4c3CCN2CCN2CCCCC2)c1 (centres undefined) | > 100 µM (inactive) | > 100 µM (inactive) | > 100 µM (inactive) | > 100 µM (inactive) | 16.1 µM (inactive) | > 100 µM (inactive) | > 100 µM (inactive) | > 100 µM (inactive) | > 100 µM (inactive) | > 100 µM (inactive) | > 100 µM (inactive) |  | > 100 µM (inactive) | > 100 µM (inactive) | > 100 µM (inactive) | 32.9 µM (inactive) |  | > 100 µM (inactive)
CC(=O)O[C@H]1CCC2[C@@H]3CCC4c5nonc5CC[C@]4(C)C3CC[C@@]21C (some centres undefined) | > 10 µM (inactive) | > 10 µM (inactive) | > 10 µM (inactive) | > 10 µM (inactive) | > 10 µM (inactive) | > 10 µM (inactive) | > 10 µM (inactive) | > 10 µM (inactive) | > 10 µM (inactive) | > 10 µM (inactive) | > 10 µM (inactive) | > 10 µM (inactive) | > 10 µM (inactive) | > 10 µM (inactive) | > 10 µM (inactive) | > 10 µM (inactive) | > 10 µM (inactive) | 
CCOC(=O)/C(=C/c1cccc(C#N)c1)N(CC)CC | > 100 µM (inactive) | > 100 µM (inactive) | > 100 µM (inactive) | > 100 µM (inactive) | > 100 µM (inactive) | > 100 µM (inactive) | > 100 µM (inactive) | > 100 µM (inactive) | > 100 µM (inactive) | > 100 µM (inactive) | > 100 µM (inactive) | > 100 µM (inactive) | > 100 µM (inactive) |  | > 100 µM (inactive) | > 100 µM (inactive) |  | > 100 µM (inactive)
N#C/C(=C1\OC(=N)C(c2ccc(Cl)cc2Cl)C1=O)c1ccc(Cl)cc1Cl (centres undefined) | > 100 µM (inactive) | 24.2 µM (inactive) | > 100 µM (inactive) | > 100 µM (inactive) | > 100 µM (inactive) | > 100 µM (inactive) | > 100 µM (inactive) | > 100 µM (inactive) | > 100 µM (inactive) | > 100 µM (inactive) | > 100 µM (inactive) | > 100 µM (inactive) | > 100 µM (inactive) | > 100 µM (inactive) | > 100 µM (inactive) | > 100 µM (inactive) | > 100 µM (inactive) | 
C[C@]12CC(C#N)C(=O)C(O)=C1CC[C@@H]1C2CC[C@@]2(C)C1CC[C@@H]2O (some centres undefined) | 22.9 µM (inactive) | 34.8 µM (inactive) | > 100 µM (inactive) | 12.2 µM (inactive) | 65.5 µM (inactive) | 40.7 µM (inactive) |  | 48.5 µM (inactive) | > 100 µM (inactive) | > 100 µM (inactive) | 46.1 µM (inactive) | 51.8 µM (inactive) | 26.3 µM (inactive) | 83.4 µM (inactive) | 27.1 µM (inactive) | 71.1 µM (inactive) | 19.1 µM (inactive) | 
C=CCC(O)c1cc(OC)ccc1OC (centres undefined) | > 100 µM (inactive) | > 100 µM (inactive) | > 100 µM (inactive) | > 100 µM (inactive) | > 100 µM (inactive) | > 10 µM (inactive) | > 100 µM (inactive) | > 100 µM (inactive) | > 100 µM (inactive) | > 100 µM (inactive) | > 100 µM (inactive) | > 100 µM (inactive) | > 100 µM (inactive) | > 100 µM (inactive) | > 100 µM (inactive) | > 100 µM (inactive) | > 100 µM (inactive) | 
